The structures appear in SMILES notation. Where a name gives a salt, the structure may show the parent alone.

This assay deals with KRas G12D-mediated phosphorylation of ERK. The assay is described as follows: Inhibition of KRas G12D-mediated phosphorylation of ERK in AGS cells. Particulars: Homo sapiens; AGS cells expressing G12D, 3 hours, phospho-ERK normalized to GAPDH. The format is cell-based. The gist of the method:
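Fixed, methanol-permeabilized; phospho-ERK (Thr202/Tyr204) by in-cell immunofluorescence normalized to GAPDH. Percent of DMSO control, IC50 by 4-parameter fit.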

The IC50 is the point on the concentration scale where inhibition reaches its midpoint. Read a high IC50 as weaker potency in that assay. `CCc1ccc(O)cc1-c1ncc2c(N3C[C@H]4CC[C@@H](C3)N4)nc(OCC34CCCN3CCC4)nc2c1F` [Example 263, 3-(4-((1R,5S)-3,8-diazabicyclo[3.2.1]octan-3-yl)-8-fluoro-2-((hexahydro-1H-pyrrolizin-7a-yl)methoxy)pyrido[4,3-d]pyrimidin-7-yl)-4-ethylphenol] gave an IC50 of 7.64 µM.
In turn, `Cn1nccc1COc1nc(N2C[C@H]3CC[C@@H](C2)N3)c2cnc(-c3cc(O)cc4ccccc34)c(F)c2n1` [Example 5, 4-(4-((1R,5S)-3,8-diazabicyclo[3.2.1]octan-3-yl)-8-fluoro-2-((1-methyl-1H-pyrazol-5-yl)methoxy)pyrido[4,3-d]pyrimidin-7-yl)naphthalen-2-ol] gave an IC50 of 8.19 µM.
Then `COC(c1ccc(O)cc1-c1ncc2c(N3CC4CCC(C3)N4)nc(OC[C@@]34CCCN3C[C@H](F)C4)nc2c1F)C(F)(F)F` (stereo in doubt) [Example 390, 3-(4-((1R,5S)-3,8-diazabicyclo[3.2.1]octan-3-yl)-8-fluoro-2-((2-fluorotetrahydro-1H-pyrrolizin-7a(5H)-yl)methoxy)pyrido[4,3-d]pyrimidin-7-yl)-4-(2,2,2-trifluoro-1-methoxyethyl)phenol], with 6.11 µM; and `Fc1c(-c2cccc3cccc(OC(F)(F)F)c23)ncc2c(N3C[C@H]4CC[C@@H](C3)N4)nc(OCC34CCCN3CCC4)nc12` [Example 345, 4-((1R,5S)-3,8-diazabicyclo[3.2.1]octan-3-yl)-8-fluoro-2-((tetrahydro-1H-pyrrolizin-7a(5H)-yl)methoxy)-7-(8-(trifluoromethoxy)naphthalen-1-yl)pyrido[4,3-d]pyrimidine], with 1.47 µM; and `CC(C)N1CCC[C@H]1COc1nc(N2C[C@H]3CC[C@@H](C2)N3)c2cnc(-c3cccc4cccc(Cl)c34)c(F)c2n1` [Example 29, 4-((R,5S)-3,8-diazabicyclo[3.2.1]octan-3-yl)-7-(8-chloronaphthalen-1-yl)-8-fluoro-2-(((S)-1-isopropylpyrrolidin-2-yl)methoxy)pyrido[4,3-d]pyrimidine], with 13.6 µM.
Then `COCCCN1CCC(Oc2nc(N3C[C@H]4CC[C@@H](C3)N4)c3cnc(-c4cc(O)cc5ccccc45)c(F)c3n2)CC1` [Example 41, 4-(4-((1R,5S)-3,8-diazabicyclo[3.2.1]octan-3-yl)-8-fluoro-2-((1-(3-methoxypropyl)piperidin-4-yl)oxy)pyrido[4,3-d]pyrimidin-7-yl)naphthalen-2-ol], with 6.65 µM; and `Fc1c(-c2cccc3cccc(-c4c[nH]nn4)c23)ncc2c(N3C[C@H]4CC[C@@H](C3)N4)nc(OCC34CCCN3CCC4)nc12` [Example 180, 7-(8-(1H-1,2,3-triazol-4-yl)naphthalen-1-yl)-4-((1R,5S)-3,8-diazabicyclo[3.2.1]octan-3-yl)-8-fluoro-2-((hexahydro-1H-pyrrolizin-7a-yl)methoxy)pyrido[4,3-d]pyrimidine], with above 16.7 µM; and `Oc1cc(-c2ncc3c(N4C[C@H]5CC[C@@H](C4)N5)nc(OCC45CCCN4C(CF)CC5)nc3c2F)c2c(Cl)cccc2c1` (stereo partly drawn) [Example 400, 4-(4-((1R,5S)-3,8-diazabicyclo[3.2.1]octan-3-yl)-8-fluoro-2-((3-(fluoromethyl)tetrahydro-1H-pyrrolizin-7a(5H)-yl)methoxy)pyrido[4,3-d]pyrimidin-7-yl)-5-chloronaphthalen-2-ol], with 0.261 µM.
Then `Fc1c(-c2cccc3cccc(Br)c23)ncc2c(N3C[C@H]4CC[C@@H](C3)N4)nc(OCC34CCCN3CCC4)nc12` [Example 235, 4-((1R,5S)-3,8-diazabicyclo[3.2.1]octan-3-yl)-7-(8-bromonaphthalen-1-yl)-8-fluoro-2-((tetrahydro-1H-pyrrolizin-7a(5H)-yl)methoxy)pyrido[4,3-d]pyrimidine], with 0.339 µM; and `CN1CCC[C@H]1COc1nc(N2C[C@H]3CC[C@@H](C2)N3)c2cnc(-c3cc(O)cc4ccccc34)cc2n1` [Example 1, 4-(4-((1R,5S)-3,8-diazabicyclo[3.2.1]octan-3-yl)-2-(((S)-1-methylpyrrolidin-2-yl)methoxy)pyrido[4,3-d]pyrimidin-7-yl)naphthalen-2-ol tris-hydrochloride salt], with 3.16 µM; and `Fc1c(-c2cccc3cccc(Cl)c23)ncc2c(N3C[C@H]4CC[C@@H](C3)N4)nc(OCC34CC(F)CN3CC(F)C4)nc12` (stereo partly drawn) [Example 425, 4-((1R,5S)-3,8-diazabicyclo[3.2.1]octan-3-yl)-7-(8-chloronaphthalen-1-yl)-2-((2,6-difluorohexahydro-1H-pyrrolizin-7a-yl)methoxy)-8-fluoropyrido[4,3-d]pyrimidine], with 5.41 µM.
Consider `CO[C@@H]1C[C@@H](COc2nc(N3C[C@H]4CC[C@@H](C3)N4)c3cnc(-c4cccc5cccc(Cl)c45)c(F)c3n2)N(C)C1` [Example 34, 4-((1R,5S)-3,8-diazabicyclo[3.2.1]octan-3-yl)-7-(8-chloronaphthalen-1-yl)-8-fluoro-2-(((2S,4R)-4-methoxy-1-methylpyrrolidin-2-yl)methoxy)pyrido[4,3-d]pyrimidine], for which the IC50 was found to be 4.21 µM.
Under `Oc1cc(-c2ncc3c(N4C[C@H]5CC[C@@H](C4)N5)nc(N4CC5(CCOC5)C4)nc3c2F)c2ccccc2c1` [Example 76, 4-(4-((1R,5S)-3,8-diazabicyclo[3.2.1]octan-3-yl)-8-fluoro-2-(6-oxa-2-azaspiro[3.4]octan-2-yl)pyrido[4,3-d]pyrimidin-7-yl)naphthalen-2-ol] stands 7.41 µM; under `Cc1cccnc1CCOc1nc(N2C[C@H]3CC[C@@H](C2)N3)c2cnc(-c3cc(O)cc4ccccc34)c(F)c2n1` [Example 6, 4-(4-((1R,5S)-3,8-diazabicyclo[3.2.1]octan-3-yl)-8-fluoro-2-(2-(3-methylpyridin-2-yl)ethoxy)pyrido[4,3-d]pyrimidin-7-yl)naphthalen-2-ol], 11.5 µM.
In turn, `CSc1cccc2cccc(-c3ncc4c(N5C[C@H]6CC[C@@H](C5)N6)nc(OCC56CCCN5CCC6)nc4c3F)c12` [Example 199, 4-((1R,5S)-3,8-diazabicyclo[3.2.1]octan-3-yl)-8-fluoro-7-(8-(methylthio)naphthalen-1-yl)-2-((tetrahydro-1H-pyrrolizin-7a(5H)-yl)methoxy)pyrido[4,3-d]pyrimidine] yielded an IC50 of 0.465 µM.
Under `Fc1c(-c2cccc3cccc(Cl)c23)ncc2c(N3C[C@H]4CC[C@@H](C3)N4)nc(OCC34CCCN3CC(F)(F)C4)nc12` (stereo partly drawn) [Example 93, 4-((1R,5S)-3,8-diazabicyclo[3.2.1]octan-3-yl)-7-(8-chloronaphthalen-1-yl)-2-((2,2-difluorotetrahydro-1H-pyrrolizin-7a(5H)-yl)methoxy)-8-fluoropyrido[4,3-d]pyrimidine bis(2,2,2-trifluoroacetate)] stands above 16.7 µM; under `CC(=O)N1CCC(Oc2nc(N3C[C@H]4CC[C@@H](C3)N4)c3cnc(-c4cc(O)cc5ccccc45)c(F)c3n2)CC1` [Example 78, 1-(4-((4-((1R,5S)-3,8-diazabicyclo[3.2.1]octan-3-yl)-8-fluoro-7-(3-hydroxynaphthalen-1-yl)pyrido[4,3-d]pyrimidin-2-yl)oxy)piperidin-1-yl)ethan-1-one], above 16.7 µM; under `OCC#Cc1cccc2cccc(-c3ncc4c(N5C[C@H]6CC[C@@H](C5)N6)nc(OCC56CCCN5CCC6)nc4c3F)c12` [Example 193, 3-(8-(4-((1R,5S)-3,8-diazabicyclo[3.2.1]octan-3-yl)-8-fluoro-2-((tetrahydro-1H-pyrrolizin-7a(5H)-yl)methoxy)pyrido[4,3-d]pyrimidin-7-yl)naphthalen-1-yl)prop-2-yn-1-ol], 8.52 µM.
`O[C@H]1CN2CCC[C@]2(COc2nc(N3CC4CCC(C3)N4)c3cnc(-c4cccc5cccc(Cl)c45)c(F)c3n2)C1` (stereo in doubt) [Example 224, 7a-(((4-((1R,5S)-3,8-diazabicyclo[3.2.1]octan-3-yl)-7-(8-chloronaphthalen-1-yl)-8-fluoropyrido[4,3-d]pyrimidin-2-yl)oxy)methyl)hexahydro-1H-pyrrolizin-2-ol bis-hydrochloride] came in with an IC50 of 6.38 µM.
The compound `O=C(OC[C@H]1CC[C@@]2(COc3nc(N4CC5CCC(C4)N5)c4cnc(-c5cccc6cccc(Cl)c56)c(F)c4n3)CCCN12)N1CCCCC1` [Example 444, ((3R,7aR)-7a-(((4-(3,8-diazabicyclo[3.2.1]octan-3-yl)-7-(8-chloronaphthalen-1-yl)-8-fluoropyrido[4,3-d]pyrimidin-2-yl)oxy)methyl)hexahydro-1H-pyrrolizin-3-yl)methyl piperidine-1-carboxylate] returned an IC50 of 0.365 µM.
Under `COCCNC(=O)O[C@@H]1C[C@@H](COc2nc(N3C[C@H]4CC[C@@H](C3)N4)c3cnc(-c4cccc5cccc(Cl)c45)c(F)c3n2)N(C)C1` [Example 280, (3R,5S)-5-(((4-((1R,5S)-3,8-diazabicyclo[3.2.1]octan-3-yl)-7-(8-chloronaphthalen-1-yl)-8-fluoropyrido[4,3-d]pyrimidin-2-yl)oxy)methyl)-1-methylpyrrolidin-3-yl (2-methoxyethyl)carbamate] stands 6.12 µM; under `CC#Cc1cccc2cccc(-c3ncc4c(N5C[C@H]6CC[C@@H](C5)N6)nc(OCC56CCCN5CCC6)nc4c3F)c12` [Example 195, 4-((1R,5S)-3,8-diazabicyclo[3.2.1]octan-3-yl)-8-fluoro-7-(8-(prop-1-yn-1-yl)naphthalen-1-yl)-2-((tetrahydro-1H-pyrrolizin-7a(5H)-yl)methoxy)pyrido[4,3-d]pyrimidine], 2.46 µM.
`Cc1ccc2[nH]ncc2c1-c1ncc2c(N3C[C@H]4CC[C@@H](C3)N4)nc(OCC34CCCN3CCC4)nc2c1F` [Example 332, 4-((1R,5S)-3,8-diazabicyclo[3.2.1]octan-3-yl)-8-fluoro-7-(5-methyl-1H-indazol-4-yl)-2-((tetrahydro-1H-pyrrolizin-7a(5H)-yl)methoxy)pyrido[4,3-d]pyrimidine] displayed an IC50 above 16.7 µM.

(Values after patent US11453683B1, “KRas G12D inhibitors” (Mirati Therapeutics, Inc., priority 2019, dated 2022).)
